According to publication PMC8508710, “Biochemical Characterization of 13-Lipoxygenases of Arabidopsis thaliana” (International Journal of Molecular Sciences, 2021):
Like-named read-outs stand apart in the source and are kept apart here.

Assays:
LOX4 = target: T1, LOX4 (Arabidopsis thaliana, UniProt Q9FNX8); assay: LOX4 activity, spectrophotometric (conjugated diene formation at 234 nm); settings: for Photometry Relative activity (%) LOX4: enzyme 0.225 µg/µL incubated 10 min 30 °C with 280 µM chemical, 4.8 µM LeA, 50 mM Tris-HCl pH 7.2, vs solvent control; for Relative Activity (%) LOX4: E. coli lysate in 50 mM TRIS pH 8.0 diluted 1:10, 50 mM HEPES pH 8.0 + 1 mM metal salt, LeA, 234 nm
T1 sequence (Q9FNX8 71-926): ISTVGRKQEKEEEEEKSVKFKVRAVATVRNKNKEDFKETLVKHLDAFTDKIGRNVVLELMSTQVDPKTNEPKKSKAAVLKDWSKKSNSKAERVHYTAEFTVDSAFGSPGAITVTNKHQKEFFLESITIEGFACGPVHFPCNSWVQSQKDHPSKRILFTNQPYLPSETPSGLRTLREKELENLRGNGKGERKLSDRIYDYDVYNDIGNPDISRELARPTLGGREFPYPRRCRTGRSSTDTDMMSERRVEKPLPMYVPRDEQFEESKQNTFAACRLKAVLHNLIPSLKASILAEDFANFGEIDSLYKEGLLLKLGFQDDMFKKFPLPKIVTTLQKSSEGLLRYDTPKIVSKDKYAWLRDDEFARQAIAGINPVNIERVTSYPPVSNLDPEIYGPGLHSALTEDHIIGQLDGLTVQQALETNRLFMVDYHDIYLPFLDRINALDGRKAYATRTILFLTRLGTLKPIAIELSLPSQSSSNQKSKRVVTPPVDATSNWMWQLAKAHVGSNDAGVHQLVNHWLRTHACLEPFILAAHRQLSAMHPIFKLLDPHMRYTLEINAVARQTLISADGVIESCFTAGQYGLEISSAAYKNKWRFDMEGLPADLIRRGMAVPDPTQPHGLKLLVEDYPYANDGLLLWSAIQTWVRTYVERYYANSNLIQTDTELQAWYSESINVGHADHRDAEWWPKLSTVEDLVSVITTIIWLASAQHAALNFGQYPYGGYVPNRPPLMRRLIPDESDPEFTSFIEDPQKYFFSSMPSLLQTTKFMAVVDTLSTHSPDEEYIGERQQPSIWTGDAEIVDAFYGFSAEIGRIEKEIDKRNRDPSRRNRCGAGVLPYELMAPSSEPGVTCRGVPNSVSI

LOX6 = target: T2, LOX6 (Arabidopsis thaliana, UniProt Q9CAG3); assay: LOX6 activity, oxygen electrode (polarography); type: biochemical; set-up: made in house; host or cells: E. coli Nico21(DE3), pEXP5-NT/TOPO; settings: for activity at 280 µM: enzyme incubated with 280 µM chemical (1/10 vol of 2.8 mM), injected into 30 µM LeA, 50 mM Tris-HCl pH 7.2, vs solvent control, read-out: Polarography Relative Activity (%) LOX6; for Increase of LOX6-catalyzed oxygen consumption: 1 mM cation, LeA 30 µM, pH 8.0; for Relative Activity (%) LOX6: 1 mM metal salt, LeA 30 µM in 20 mM HEPES pH 8.0, oxygen consumption vs control without metal
T2 sequence (Q9CAG3 41-917): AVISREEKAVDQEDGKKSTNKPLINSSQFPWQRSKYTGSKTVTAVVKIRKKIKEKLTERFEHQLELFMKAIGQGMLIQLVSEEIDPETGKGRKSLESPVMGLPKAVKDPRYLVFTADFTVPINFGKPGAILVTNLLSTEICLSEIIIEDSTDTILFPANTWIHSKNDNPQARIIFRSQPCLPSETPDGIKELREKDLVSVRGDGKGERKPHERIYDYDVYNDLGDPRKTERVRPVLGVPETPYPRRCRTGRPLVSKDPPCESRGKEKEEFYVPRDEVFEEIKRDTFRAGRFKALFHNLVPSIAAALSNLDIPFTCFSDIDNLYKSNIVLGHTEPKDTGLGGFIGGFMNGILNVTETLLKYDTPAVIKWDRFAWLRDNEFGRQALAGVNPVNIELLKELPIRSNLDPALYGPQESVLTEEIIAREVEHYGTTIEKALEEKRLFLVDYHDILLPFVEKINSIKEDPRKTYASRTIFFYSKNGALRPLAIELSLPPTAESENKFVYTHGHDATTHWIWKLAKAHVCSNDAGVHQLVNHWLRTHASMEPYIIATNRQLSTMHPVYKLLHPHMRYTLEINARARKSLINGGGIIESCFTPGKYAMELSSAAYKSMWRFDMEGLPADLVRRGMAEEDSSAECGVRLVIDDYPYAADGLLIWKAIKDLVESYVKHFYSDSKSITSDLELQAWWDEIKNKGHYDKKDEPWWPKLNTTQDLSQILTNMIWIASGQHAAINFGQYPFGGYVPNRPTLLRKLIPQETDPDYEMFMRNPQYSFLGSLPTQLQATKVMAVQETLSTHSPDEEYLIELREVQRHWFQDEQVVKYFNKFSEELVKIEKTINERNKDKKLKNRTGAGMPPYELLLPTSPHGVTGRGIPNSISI

AOC = system: AOC; set-up: method as in PMID 12223729; settings: cited from earlier work
LOX3 = target: T3, LOX3 (Arabidopsis thaliana, UniProt Q9LNR3); assay: LOX3 activity, oxygen electrode (polarography); type: biochemical; set-up: made in house; host or cells: E. coli Nico21(DE3), pET15b; settings: for Relative Activity (%) LOX3: 1 mM metal salt, LeA 30 µM in 20 mM HEPES pH 8.0, oxygen consumption vs control without metal
T3 sequence (Q9LNR3 71-919): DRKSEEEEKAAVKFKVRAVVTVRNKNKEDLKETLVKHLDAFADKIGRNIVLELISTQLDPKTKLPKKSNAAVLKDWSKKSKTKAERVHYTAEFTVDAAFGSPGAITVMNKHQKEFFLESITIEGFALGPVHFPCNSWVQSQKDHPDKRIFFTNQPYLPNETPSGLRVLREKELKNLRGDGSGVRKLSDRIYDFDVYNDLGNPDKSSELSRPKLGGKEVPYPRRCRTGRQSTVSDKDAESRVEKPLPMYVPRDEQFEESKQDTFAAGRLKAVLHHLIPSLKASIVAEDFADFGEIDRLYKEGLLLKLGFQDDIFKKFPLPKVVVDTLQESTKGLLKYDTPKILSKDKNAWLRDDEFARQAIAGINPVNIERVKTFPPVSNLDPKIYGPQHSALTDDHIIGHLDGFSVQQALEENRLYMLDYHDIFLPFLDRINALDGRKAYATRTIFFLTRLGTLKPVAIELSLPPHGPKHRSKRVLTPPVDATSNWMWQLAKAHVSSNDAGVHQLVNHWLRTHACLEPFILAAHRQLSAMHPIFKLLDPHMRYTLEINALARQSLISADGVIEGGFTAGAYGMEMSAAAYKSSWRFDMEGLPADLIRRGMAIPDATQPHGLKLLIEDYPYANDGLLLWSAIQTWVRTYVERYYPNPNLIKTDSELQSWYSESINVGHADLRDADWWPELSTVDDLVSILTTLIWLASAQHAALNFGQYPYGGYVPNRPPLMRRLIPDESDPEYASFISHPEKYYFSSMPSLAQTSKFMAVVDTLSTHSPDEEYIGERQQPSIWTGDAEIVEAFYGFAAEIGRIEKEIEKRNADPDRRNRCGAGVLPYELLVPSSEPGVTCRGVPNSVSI

SMILES | activity at 280 µM (LOX6) [%] | Relative Activity (%) LOX4 (LOX4) [%] | Relative Activity (%) LOX6 (LOX6) | Relative Activity (%) LOX3 (LOX3) | other results
O=C(O)/C=C/CCCCCCCCC(=O)O [TA, traumatic acid] | 101 ± 12 | – | – | – | Photometry Relative activity (%) LOX4 (LOX4): 106 ± 4%
[Cl-].[Cl-].[Mg+2] [MgCl2] | – | 107±2 | 142 ± 15% | 135 ± 4% | Sensitivity of AOC (AOC; 1.0 mM): insensitivity; Increase of LOX6-catalyzed oxygen consumption (LOX6): 42%; Increase of LOX3 activity in comparison to control (LOX3; 1 mM cation, LeA 30 µM, pH 8.0): 35%
[Ca+2].[Cl-].[Cl-] [CaCl2] | – | 85±6 | 121 ± 15% | 117 ± 10% | Sensitivity of AOC (AOC; 1.0 mM): insensitivity; Increase of LOX6-catalyzed oxygen consumption (LOX6): 21%
CCC=CCC1C(=O)C=CC1CCCCCCCC(=O)O (stereo not drawn) [12-OPDA, cis-(+)-12-oxophytodienoic acid] | 50 ± 10 | – | – | – | IC50 (LOX4): 48 µM; Ki (LOX4): 10 µM; Mode of inhibition (LOX4; Lineweaver–Burk and Dixon plots): non-competitive or mixed; Photometry Relative activity (%) LOX4 (LOX4): 6 ± 4%; Sensitivity of AOC (AOC; 0.5 mM): insensitivity
CC/C=C\CC1C(=O)CCC1CC(=O)OC (stereo not drawn) [MJ, methyl jasmonate] | 94 ± 6 | – | – | – | –
O=C(O)c1ccccc1O [SA, salicylic acid] | 103 ± 5 | – | – | – | –
O=S(=O)([O-])[O-].[Cd+2] [CdSO4] | – | 40±6 | no activity | no activity | –
